From patent US20110172308A1, “Antagonsim of PGF2a Receptor to Treat Hyertension Characterized by Activation of the Renin-Angiotensin-Aldosterone System” (The Trustees of The University of Pennsylvania, priority 2008, published 2011)
“Also recorded” adds a separate entry of the source.

Assays:
JG cells = assay: cAMP content in cultured cells rich in JG cells; type: cell-based, mouse; settings: vs vehicle controls
From the text: (§1) FIGS. 5A-5E depict data related to renin expression resulting from activation of FP or prostacyclin (IP) receptor in in vitro cultures of juxtaglomerular apparatus cells obtained from WT or FP knockout mice. FIG. 5A is a graph depicting the effect of FP agonists Latanoprost (Lata) and Travoprost (Trav), and IP agonist Cicaprost (Cica) on renin mRNA expression in JG enriched cultured cells. Each point represents mean±SEMs of 4 cell groups, repeated 3 times. FIG. 5B is a bar graph illustrating the effect of effect of Latanoprost and Cicaprost on cAMP content in cultured cells rich in JG cells. Data are presented as cAMP fold change from 3-6 independent samples (6-well plate) from 3 independent experiments. *, p<0.05 vs vehicle controls, n=3. FIG. 5C is a graph of the original recording of membrance capacitance in a single mouse JG cell from WT mice. […] FIG. 5E is a graph of whole cell currents were measured in response to 11 pulses from −150 to +90 mV in 30-mV steps for 200 ms from a holding potential of −30 mV. Pulses were applied before and after superfusion with 1 μM Latanoprost. Mean steady-state current-voltage curves from 4 independent experiments before (cycle) and after (square) 20 min of capacitance measurements are given.
Culture of Juxtaglomerular (JG) cells: JG cells were prepared as described (Fujino et al., 2004, J Clin Invest. 114: 805-812). […]

[1] = test system: juxtaglomerular (JG) cells; assay: Renin mRNA expression in cultured JG cells treated with prostanoid agonists (real time RT-PCR); type: cell-based, mouse
Method: Culture of Juxtaglomerular (JG) cells: JG cells were prepared as described (Fujino et al., 2004, J Clin Invest. 114: 805-812). The kidneys were removed, decapsulated, minced with a surgical blade, incubated with 0.1% collagenase for 15 minutes at 37° C. and filtered through a 40 μm nylon mesh. The filtered cells were placed on 15 ml of 30% isosmotic Percoll solution (Amersham Biosciences) and centrifuged at 27,000 g for 20 minutes at 4° C. The cell layer near the surface, enriched with JG cells, was collected and washed. […] The resulting cDNA (40 ng) was used for quantitative real time PCR. Quantitative real time PCR Analysis of Gene Expression: TaqMan gene expression assays (Applied Biosystems, Foster City, Calif.; catalog No. 4331182) for FP (Mm004360055_m1), RENIN (Mm02342889_g1), TNFα (Mm00443258_m1), IL-1β (Mm00434228_m1), IL-12β (Mm01351787_m1), IL-4 (Mm00445259_m1,) IL-6 (Mm00446190_m1), IL-18 (Mm00434225_m1), iNOS (Mm01309902_m1), TGFβ (Mm00441724_m1), INFγ (Mm00801778_m1), IL-10 (Mm00439616_m1) were performed on an ABI Prism 7900 Sequence Detection System. […] An prostanoid agonist was administered as different concentrations and the expression of renin was monitored using real time RT-PCR. […]

single WT JG cells = assay: Patch-clamp membrane capacitance of single JG cells; type: cell-based, mouse; settings: single WT JG cells in vitro, 1 μM Latanoprost
From the text: as §1

renin secretion = settings: Jensen et al., 1996; Fujino et al., 2004; cited from earlier work
WT and FP knockout mice = assay: Mean arterial blood pressure after bolus of Ang II; type: in vivo, mouse; settings: 50 ng/kg, acute intracarotid infusion, n=7
Method: FIGS. 3A-3C depicts data related to angiotensin II receptor (AT1) expression and blood pressure effects of Ang II injection in WT and FP knockout mice. FIG. 3A depicts AT1a and FIG. 3B depicts AT1b gene expression in aorta by real time RT-PCR. *p<0.01 (n=4) versus WT, repeated 3 times. FIG. 3C depicts blood pressure (BP) after Angiotengin II (Ang II) administration (50 ng/kg) compared with baseline in FP^−/− and WT littermates. Mean arterial BP was monitored in mice by pressure transducer connected to a catheter in left artery. Baseline BP is readout before injection. BP changes are depicted as difference between baseline and after injection at one min intervals. *p<0.01 versus WT, n=8-9.
Mean Arterial Blood Pressure (BP) Measurements: The right internal jugular vein and left carotid artery of anesthetized mice were cannulated with PE-10 tubing. The arterial catheter was connected to a Capto SP844 pressure transducer, and BP was monitored continuously with a PowerLab/8SP system. […]
To examine the acute effect of Ang II on blood pressure, WT and FPKO mice were sedated and subjected to a bolus infusion of Ang II. Blood pressure was measured directly using an arterial catheter connected to a pressure transducer. After the equilibration period and the baseline BP was recorded, mice were injected with a bolus of Ang II.

WT and FPKO mice = assay: Mean arterial blood pressure after PGF2α administration; type: in vivo, mouse
Method: Mean Arterial Blood Pressure (BP) Measurements: The right internal jugular vein and left carotid artery of anesthetized mice were cannulated with PE-10 tubing. The arterial catheter was connected to a Capto SP844 pressure transducer, and BP was monitored continuously with a PowerLab/8SP system. Mice were injected via the right internal jugular vein with […] or PGF2α administration to exclude volume-mediated BP changes.
Given that the lacZ gene was knocked into the endogenous FP receptor locus in the FP targeting allele, the receptor expression pattern was monitored by mapping β-galactosidase (β-gal) activity. Scattered activity of β-gal was detectable in the medial smooth muscle layer of renal small arteries in FP^+/− mice (FIG. 6A), but was not evident in FP^+/− mouse aorta nor in the atherosclerotic lesions of Ldlr^−/−/FP^−/− mice (FIGS. 6B-6G). To assess the systemic effect of PGF2α, WT and FPKO mice were sedated in order to measure blood pressure directly in the heart. PGF2α was administered and blood pressure was monitored. Once blood pressure returned to baseline, the next dose of PGF2α was administered (FIG. 6H). Four doses of PGF2α were tested: 10 μg/kg body weight, 30 μg/kg, 90 μg/kg and […].

With `CCC#CC[C@H](C)[C@H](O)C#C[C@@H]1[C@H]2C/C(=C/COCC(=O)O)C[C@H]2C[C@H]1O` [Cicaprost] the “JG cell cAMP” value (JG cells) was “increase”, the “expression of renin in JG cells from FPKO mice” value ([1]; JG cells from FPKO mice, 20 hours incubation, various concentrations) was “stimulated” and the “effects as a renin secretagogue, WT compared with FP−/− mice” value ([1]; JG cells from WT vs FP−/− mice) was “similar”.
In the case of `CC(C)OC(=O)CCC/C=C\C[C@@H]1[C@@H](CC[C@@H](O)CCc2ccccc2)[C@H](O)C[C@@H]1O` [Latanoprost], the “JG cell cAMP” value (JG cells) is reported as “failed to increase” and the “change in membrane capacitance” value (single WT JG cells) is reported as “no change”.
In the case of `CCCCC[C@H](O)/C=C/[C@H]1[C@H](O)CC(=O)[C@@H]1C/C=C\CCCC(=O)O` [PGE2], the renin secretagogue activity (renin secretion) is listed as “potent renin secretagogues”.
For `CCCCC[C@H](O)/C=C/[C@@H]1[C@H]2C/C(=C/CCCC(=O)O)O[C@H]2C[C@H]1O` [Prostacyclin (PGI2), Prostacyclin], the renin secretagogue activity (renin secretion) is given as “potent renin secretagogues”.
In the case of “angiotensin II (DRVYIHPF; Angiotensin-2; UniProt P01019 25-32, looked up) [Ang II, Ang II peptide, a powerful vasoconstrictor]”, the “hypertensive response to acute infusion of Ang II in FP KO mice” value (WT and FP knockout mice; FP KO mice) is reported as 37.5±5.6 and the “hypertensive response to acute infusion of Ang II in WT controls” value (WT and FP knockout mice; WT controls) is reported as 20.3±4.7.
In the case of prostaglandin F2α [PGF2α], the “blood pressure after PGF2α administration in FPKO mice” value (WT and FPKO mice; FPKO mice, 10, 30, 90, 270 μg/kg) is reported as “not”, the “blood pressure in FP−/− mice at the highest rate of infusion” value (WT and FPKO mice; FP−/− mice, highest rate of infusion) is reported as “rise in blood pressure” and the “blood pressure after PGF2α administration in WT mice” value (WT and FPKO mice; WT mice, 10, 30, 90, 270 μg/kg) is reported as “increased; also recorded: dose dependent”. The renin secretagogue activity (renin secretion) was “not”.
